# Measured values published in ChEMBL document CHEMBL1201861, “Genomics of Drug Sensitity in Cancer screening data, Wellcome Trust Sanger Institute”.
# Columns and labels:
# Assay in all cases: cells
# COLO-829 = format: functional, cell-based, Homo sapiens; settings: Homo sapiens, COLO-829
# Description: SANGER: Inhibition of human COLO-829 cell growth in a cell viability assay.
# D283 Med = format: functional, cell-based, Homo sapiens; settings: Homo sapiens, D283 Med
# Description: SANGER: Inhibition of human D-283MED cell growth in a cell viability assay.
# ES4 = format: functional, cell-based, Homo sapiens; settings: Homo sapiens, ES4;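 also: growth inhibition of human ES4 cells, read out by a cell viability assay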
# Description: SANGER: Inhibition of human ES4 cell growth in a cell viability assay.
# ES5 = format: functional, cell-based, Homo sapiens; settings: Homo sapiens, ES5;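 also: growth inhibition of human ES5 cells, read out by a cell viability assay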
# ETK-1 = format: functional, cell-based, Homo sapiens; settings: Homo sapiens, ETK-1;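 also: growth inhibition of human ETK-1 cells, read out with a cell viability assay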
# Description: SANGER: Inhibition of human ETK-1 cell growth in a cell viability assay.
# GOTO = format: functional, cell-based, Homo sapiens; settings: Homo sapiens, GOTO;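 also: growth inhibition of GOTO cells, read out by a cell viability assay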
# Description: SANGER: Inhibition of human GOTO cell growth in a cell viability assay.
# HC-1 = format: functional, cell-based; settings: Homo sapiens;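 also: growth inhibition of HC-1 cells measured by a cell viability assay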
# Description: SANGER: Inhibition of human HC-1 cell growth in a cell viability assay.
# HCC2157 = format: functional, cell-based; settings: Homo sapiens;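 also: growth inhibition of the cancer cell line, read out as cell viability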
# Description: SANGER: Inhibition of human HCC2157 cell growth in a cell viability assay.
# HH = format: functional, cell-based; settings: Homo sapiens
# Description: SANGER: Inhibition of human HH cell growth in a cell viability assay.
# LB373-MEL-D = format: functional, cell-based, Homo sapiens; settings: Homo sapiens, LB373-MEL-D;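 also: growth inhibition of the cell line, read out in a cell viability assay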
# Description: SANGER: Inhibition of human LB373-MEL-D cell growth in a cell viability assay.
# LB771-HNC = format: functional, cell-based, Homo sapiens; settings: Homo sapiens, LB771-HNC;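 also: growth inhibition of LB771-HNC human cells, read out with a cell viability assay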
# MV4-11 = format: functional, cell-based, MV-4-11; settings: Homo sapiens;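 also: cell viability readout measuring growth inhibition of human MV-4-11 cells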
# Description: SANGER: Inhibition of human MV-4-11 cell growth in a cell viability assay.
# NB12 = format: functional, cell-based, Homo sapiens; settings: Homo sapiens, NB12;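 also: growth inhibition of human NB12 cells, read out by a cell viability assay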
# Description: SANGER: Inhibition of human NB12 cell growth in a cell viability assay.
# NB14 = format: functional, cell-based; settings: Homo sapiens;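 also: growth inhibition of NB14 cells measured with a cell viability assay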
# Description: SANGER: Inhibition of human NB14 cell growth in a cell viability assay.
# NB5 = format: functional, cell-based, Homo sapiens; settings: Homo sapiens, NB5;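 also: growth inhibition of NB5 cells, read out as cell viability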
# Description: SANGER: Inhibition of human NB5 cell growth in a cell viability assay.
# NCI-H2126 = format: functional, cell-based, Homo sapiens; settings: Homo sapiens, NCI-H2126;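 also: growth inhibition of the cancer cell line, determined with a cell viability readout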
# Description: SANGER: Inhibition of human NCI-H2126 cell growth in a cell viability assay.
# NH-12 = format: functional, cell-based, Homo sapiens; settings: Homo sapiens, NH-12;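 also: growth inhibition of NH-12 cells, read out with a cell viability assay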
# Description: SANGER: Inhibition of human NH-12 cell growth in a cell viability assay.
# RH-1 = format: functional, cell-based, Homo sapiens; settings: Homo sapiens, RH-1;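 also: growth inhibition of human RH-1 cells, read out with a cell viability assay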
# Ramos-2G6-4C10 = format: functional, cell-based; settings: Homo sapiens;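 also: growth inhibition of the cell line, measured by a cell viability read-out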
# Description: SANGER: Inhibition of human Ramos-2G6-4C10 cell growth in a cell viability assay.
# SK-PN-DW = format: functional, cell-based; settings: Homo sapiens;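 also: growth inhibition measured with a viability assay on these cells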
# Description: SANGER: Inhibition of human SK-PN-DW cell growth in a cell viability assay.
# A3-KAW = format: functional, cell-based; settings: Homo sapiens;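 also: growth inhibition of human A3-KAW cells, read out with a cell viability assay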
# Description: SANGER: Inhibition of human A3-KAW cell growth in a cell viability assay.
# ACN = format: functional, cell-based, Homo sapiens; settings: Homo sapiens, ACN;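 also: growth inhibition of the human ACN cell line, read out via cell viability testing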
# Description: SANGER: Inhibition of human ACN cell growth in a cell viability assay.
# BE-13 = format: functional, cell-based; settings: Homo sapiens;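 also: growth inhibition of human BE-13 cells, measured with a cell viability assay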
# Description: SANGER: Inhibition of human BE-13 cell growth in a cell viability assay.
# TE-6 = format: functional, cell-based, Homo sapiens; settings: Homo sapiens, TE-6;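 also: growth inhibition of TE-6 cells, read out with a cell viability assay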
# Description: SANGER: Inhibition of human TE-6 cell growth in a cell viability assay.
# TE-11 = format: functional, cell-based, Homo sapiens; settings: Homo sapiens, TE-11;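 also: growth inhibition of human TE-11 cells, read out by a cell viability assay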
# Description: SANGER: Inhibition of human TE-11 cell growth in a cell viability assay.
# TGBC24TKB = format: functional, cell-based, Homo sapiens; settings: Homo sapiens, TGBC24TKB;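 also: growth inhibition of human TGBC24TKB cells, read out with a cell viability assay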
# Description: SANGER: Inhibition of human TGBC24TKB cell growth in a cell viability assay.
SMILES,IC50 (COLO-829) [µM],IC50 (D283 Med) [µM],IC50 (ES4) [nM],IC50 (ES5) [µM],IC50 (ETK-1) [nM],IC50 (GOTO) [nM],IC50 (HC-1) [µM],IC50 (HCC2157) [nM],IC50 (HH) [nM],IC50 (LB373-MEL-D) [nM],IC50 (LB771-HNC) [nM],IC50 (MV4-11) [nM],IC50 (NB14) [µM],IC50 (NB5) [nM],IC50 (NCI-H2126) [nM],IC50 (NH-12) [µM],IC50 (RH-1) [nM],IC50 (Ramos-2G6-4C10) [µM],IC50 (SK-PN-DW) [nM],IC50 (A3-KAW) [nM],other results
CCc1nc(N)nc(N)c1-c1ccc(Cl)cc1 [PYRIMETHAMINE],7.28,> 20,3120,> 20,4100,> 20000,5.65,> 20000,> 20000,> 20000,> 20000,11400,> 20,> 20000,> 20000,> 20,> 20000,5.64,> 20000,9440,IC50 (NB12): > 20 µM; IC50 (ACN): 2300 nM; IC50 (BE-13): 7770 nM; IC50 (TE-6): > 20000 nM
O=C(/C=C/c1ccccc1)NC(NC(=S)Nc1cccc2cccnc12)C(Cl)(Cl)Cl (centres undefined) [SALUBRINAL],> 16,> 16,> 16000,> 16,> 16000,> 16000,11.2,> 16000,> 16000,> 16000,> 16000,> 16000,> 16,> 16000,> 16000,> 16,> 16000,9.9,> 16000,8430,IC50 (NB12): > 16 µM; IC50 (ACN): > 16000 nM; IC50 (BE-13): 8270 nM; IC50 (TE-6): > 16000 nM
Cc1cc(Nc2cc(N3CCN(C)CC3)nc(Sc3ccc(NC(=O)C4CC4)cc3)n2)n[nH]1 [TOZASERTIB],> 2,> 2,911,> 2,1140,> 2000,> 2,> 2000,> 2000,> 2000,> 2000,77.8,> 2,1640,> 2000,> 2,> 2000,> 2,791,> 2000,IC50 (ACN): > 2000 nM; IC50 (BE-13): 3.38 nM; IC50 (TE-11): 150 nM; IC50 (TE-6): > 2000 nM; IC50 (TGBC24TKB): 864 nM
CN1CCN(CCOc2cc(OC3CCOCC3)c3c(Nc4c(Cl)ccc5c4OCO5)ncnc3c2)CC1 [SARACATINIB],> 2,> 2,> 2000,> 2,> 2000,> 2000,> 2,> 2000,> 2000,> 2000,> 2000,> 2000,> 2,> 2000,> 2000,> 2,> 2000,> 2,> 2000,> 2000,IC50 (ACN): > 2000 nM; IC50 (BE-13): > 2000 nM; IC50 (TE-11): 1430 nM; IC50 (TE-6): > 2000 nM; IC50 (TGBC24TKB): > 2000 nM
C=C1C(=O)O[C@@H]2C3O[C@]3(C)CC/C=C(\C)CC[C@@H]12 (some centres undefined),> 5,> 5,> 5000,> 5,> 5000,> 5000,> 5,> 5000,> 5000,> 5000,> 5000,> 5000,> 5,> 5000,> 5000,> 5,> 5000,> 5,> 5000,2290,IC50 (NB12): > 5 µM; IC50 (ACN): > 5000 nM; IC50 (BE-13): > 5000 nM; IC50 (TE-6): > 5000 nM
CO[C@H]1C[C@@H]2CC[C@@H](C)[C@@](O)(O2)C(=O)C(=O)N2CCCC[C@H]2C(=O)O[C@H]([C@H](C)C[C@@H]2CC[C@@H](O)[C@H](OC)C2)CC(=O)[C@H](C)/C=C(\C)[C@@H](O)[C@@H](OC)C(=O)[C@H](C)C[C@H](C)/C=C/C=C/C=C/1C [SIROLIMUS],> 0.1,> 0.1,< 0.391,> 0.1,2.82,> 100,> 0.1,> 100,11.4,> 100,> 100,83.7,> 0.1,> 100,> 100,> 0.1,> 100,0.00146,20.2,2.99,IC50 (ACN): > 100 nM; IC50 (BE-13): 2.99 nM; IC50 (TE-11): 77.2 nM; IC50 (TE-6): 2.77 nM; IC50 (TGBC24TKB): 5.51 nM
CCC(=O)N1CCN(c2ccc(-n3c(=O)ccc4cnc5ccc(-c6cnc7ccccc7c6)cc5c43)cc2C(F)(F)F)CC1 [TORIN1],0.207,> 1.2,83,> 1.2,< 4.69,207,0.0583,340,135,155,75.5,70,> 1.2,96.3,114,> 1.2,280,0.0275,49.5,62.2,IC50 (ACN): 15 nM; IC50 (BE-13): 37.6 nM; IC50 (TE-11): 23.7 nM; IC50 (TE-6): 681 nM; IC50 (TGBC24TKB): 58 nM
CNC(=O)c1cc(Oc2ccc(NC(=O)Nc3ccc(Cl)c(C(F)(F)F)c3)cc2)ccn1 [SORAFENIB],> 4,> 4,> 4000,> 4,> 4000,> 4000,> 4,> 4000,> 4000,> 4000,> 4000,< 15.6,> 4,> 4000,> 4000,> 4,> 4000,> 4,> 4000,1880,IC50 (NB12): > 4 µM; IC50 (ACN): > 4000 nM; IC50 (BE-13): 2700 nM; IC50 (TE-6): > 4000 nM
CS(=O)(=O)CCNCc1ccc(-c2ccc3ncnc(Nc4ccc(OCc5cccc(F)c5)c(Cl)c4)c3c2)o1 [LAPATINIB],> 2,> 2,> 2000,> 2,> 2000,> 2000,> 2,> 2000,> 2000,> 2000,> 2000,> 2000,> 2,> 2000,> 2000,> 2,> 2000,> 2,> 2000,> 2000,IC50 (NB12): > 2 µM; IC50 (ACN): > 2000 nM; IC50 (BE-13): > 2000 nM; IC50 (TE-6): 1550 nM
CC1=C2C[C@H]3[C@@H](CC=C4C[C@@H](O)CC[C@@]43C)[C@@H]2CC[C@]12O[C@@H]1C[C@H](C)CN[C@H]1[C@H]2C [CYCLOPAMINE],> 16,> 16,> 16000,> 16,> 16000,> 16000,> 16,> 16000,> 16000,> 16000,> 16000,> 16000,> 16,> 16000,> 16000,> 16,> 16000,> 16,> 16000,> 16000,IC50 (NB12): > 16 µM; IC50 (ACN): > 16000 nM; IC50 (BE-13): > 16000 nM; IC50 (TE-6): > 16000 nM
